| melting point | Structure (SMILES) |
| --- | --- |
| 196 to 198 °C | Br.Br.CN(C(=O)c1ccc(C(F)(F)F)cc1)c1ccc(Oc2ccc3c(c2)cc(C(=O)N2CCN(Cc4ccncc4)CC2)n3C)nc1 [Example 548, N-Methyl-N-{6-[1-methyl-2-(4-pyridin-4-ylmethylpiperazine-1-carbonyl)-1H-indol-5-yloxy]pyridin-3-yl}-4-trifluoromethyl-benzamide dihydrobromide] |
| 218 to 220 °C | Br.CN(C(=O)c1ccc(C(F)(F)F)cc1)c1ccc(Oc2ccc3c(c2)cc(C(=O)N2CCN(Cc4ccc(F)cc4)CC2)n3C)nc1 [Example 549, N-(6-{2-[4-(4-Fluorobenzyl)piperazine-1-carbonyl]-1-methyl-1H-indol-5-yloxy}pyridin-3-yl)-N-methyl-4-trifluoromethylbenzamide hydrobromide] |
| 211 to 215 °C (dec.) | Br.Br.Cn1c(C(=O)N2CCN(Cc3ccncc3)CC2)cc2cc(Oc3ccc(NC(=O)c4ccc(C(F)(F)F)cc4)cn3)ccc21 [Example 550, N-{6-[1-Methyl-2-(4-pyridin-4-ylmethylpiperazine-1-carbonyl)-1H-indol-5-yloxy]pyridin-3-yl}-4-trifluoromethylbenzamide dihydrobromide] |
| 254 to 257 °C | Br.Cn1c(C(=O)N2CCN(Cc3ccc(F)cc3)CC2)cc2cc(Oc3ccc(NC(=O)c4ccc(C(F)(F)F)cc4)cn3)ccc21 [Example 551, N-(6-{2-[4-(4-Fluorobenzyl)piperazine-1-carbonyl]-1-methyl-1H-indol-5-yloxy}pyridin-3-yl)-4-trifluoromethylbenzamide hydrobromide] |
| 214 to 219 °C (dec.) | Br.Br.Cn1c(C(=O)N2CCN(Cc3ccncc3)CC2)cc2cc(Oc3ccc(NC(=O)c4ccc(Cl)c(Cl)c4)cn3)ccc21 [Example 555, 3,4-Dichloro-N-{6-[1-methyl-2-(4-pyridin-4-ylmethylpiperazine-1-carbonyl)-1H-indol-5-yloxy]pyridin-3-yl}benzamide dihydrobromide] |
| 201 to 204 °C | Br.Br.Cn1c(C(=O)N2CCN(Cc3cccnc3)CC2)cc2cc(Oc3ccc(NC(=O)c4ccc(C(F)(F)F)cc4)cn3)ccc21 [Example 558, N-{6-[1-Methyl-2-(4-pyridin-3-ylmethylpiperazine-1-carbonyl)-1H-indol-5-yloxy]pyridin-3-yl}-4-trifluoromethylbenzamide dihydrobromide] |
| 191 to 193 °C | Br.Br.CN(C(=O)c1ccc(C(F)(F)F)cc1)c1ccc(Oc2ccc3c(c2)cc(C(=O)N2CCN(Cc4cccnc4)CC2)n3C)nc1 [Example 559, N-Methyl-N-{6-[1-methyl-2-(4-pyridin-3-ylmethylpiperazine-1-carbonyl)-1H-indol-5-yloxy]pyridin-3-yl}-4-trifluoromethyl-benzamide dihydrobromide] |
| 223 to 225 °C (dec.) | Br.Br.Cc1nc(Oc2ccc3c(c2)cc(C(=O)N2CCN(Cc4ccncc4)CC2)n3C)ccc1NC(=O)c1ccc(C(F)(F)F)cc1 [Example 565, N-{2-Methyl-6-[1-methyl-2-(4-pyridin-4-ylmethylpiperazine-1-carbonyl)-1H-indol-5-yloxy]pyridin-3-yl}-4-trifluoromethyl-benzamide dihydrobromide] |
| 117 to 120 °C | Cc1nc(Oc2ccc3c(c2)cc(C(=O)N2CCN(Cc4ccncc4)CC2)n3C)ccc1N(C)C(=O)c1ccc(C(F)(F)F)cc1.O=C(O)C(=O)O.O=C(O)C(=O)O [Example 566, N-Methyl-N-{2-methyl-6-[1-methyl-2-(4-pyridin-4-ylmethyl-piperazine-1-carbonyl)-1H-indol-5-yloxy]pyridin-3-yl}-4-tri-fluoromethylbenzamide dioxalate] |

The remaining lines, values behind:

| Structure (SMILES) | melting point |
| --- | --- |
| Cc1ccc(S(=O)(=O)N(C)c2ccc(Oc3ccc4cc(C(=O)N5CCN(Cc6ccc(OCC7CC7)cc6)CC5)n(C)c4c3)nc2)cc1 [Example 530, N-(6-{2-[4-(4-Cyclopropylmethoxybenzyl)piperazine-1-carbonyl]-1-methyl-1H-indol-6-yloxy}pyridin-3-yl)-4,N-dimethylbenzene-sulfonamide] | 135.6 to 138.6 °C |
| Cc1ccc(S(=O)(=O)N(C)c2ccc(Oc3ccc4cc(C(=O)N5CCN(Cc6ccc(OCCF)cc6)CC5)n(C)c4c3)nc2)cc1 [Example 531, N-[6-(2-{4-[4-(2-Fluoroethoxy)benzyl]piperazine-1-carbonyl}-1-methyl-1H-indol-6-yloxy)pyridin-3-yl]-4,N-dimethylbenzene-sulfonamide] | 138.7 to 139.8 °C |
| Br.Cc1ccc(S(=O)(=O)N(C)c2ccc(Oc3ccc4cc(C(=O)N5CCN(Cc6ccc(OC(F)F)cc6)CC5)n(C)c4c3)nc2)cc1 [Example 532, N-(6-{2-[4-(4-Difluoromethoxybenzyl)piperazine-1-carbonyl]-1-methyl-1H-indol-6-yloxy}pyridin-3-yl)-4,N-dimethylbenzene-sulfonamide hydrobromide] | 214.5 to 218.5 °C (dec.) |
| Br.Cc1ccc(S(=O)(=O)N(C)c2ccc(Oc3ccc4cc(C(=O)N5CCN(Cc6ccc(OCCC(C)C)cc6)CC5)n(C)c4c3)nc2)cc1 [Example 533, 4,N-Dimethyl-N-[6-(1-methyl-2-{4-[4-(3-methylbutoxy)benzyl]-piperazine-1-carbonyl}-1H-indol-6-yloxy)pyridin-3-yl]benzene-sulfonamide hydrobromide] | 236.5 to 238.3 °C (dec.) |
| Cc1ccc(S(=O)(=O)N(C)c2ccc(Oc3ccc4cc(C(=O)N5CCN(Cc6ccc(OC(C)C)nc6)CC5)n(C)c4c3)nc2)cc1 [Example 534, N-(6-{2-[4-(6-Isopropoxypyridin-3-ylmethyl)piperazine-1-carbonyl]-1-methyl-1H-indol-6-yloxy}pyridin-3-yl)-4,N-dimethyl-benzenesulfonamide] | 131.1 to 132.8 °C |
| Br.Cn1c(C(=O)N2CCN(Cc3ccc(OC(CF)CF)cc3)CC2)cc2ccc(Oc3ccc(NC(=O)c4ccc(C(F)(F)F)cc4Cl)cn3)cc21 [Example 537, 2-Chloro-N-[6-(2-{4-[4-(2-fluoro-1-fluoromethylethoxy)benzyl]-piperazine-1-carbonyl}-1-methyl-1H-indol-6-yloxy)pyridin-3-yl]-4-trifluoromethylbenzamide hydrobromide] | 239.8 to 240.8 °C |
| Cn1c(C(=O)N2CCN(Cc3ccc(C#N)cc3)CC2)cc2cc(Oc3ccc(NC(=O)c4ccc(C(F)(F)F)cc4)cn3)ccc21.O=C(O)/C=C\C(=O)O [Example 552, N-(6-{2-[4-(4-Cyanobenzyl)piperazine-1-carbonyl]-1-methyl-1H-indol-5-yloxy}pyridin-3-yl)-4-trifluoromethylbenzamide maleate] | 149 to 152 °C |
| Br.CN(C(=O)c1ccc(C(F)(F)F)cc1)c1ccc(Oc2ccc3c(c2)cc(C(=O)N2CCN(Cc4ccc(C(F)(F)F)cc4)CC2)n3C)nc1 [Example 553, N-Methyl-N-(6-{1-methyl-2-[4-(4-trifluoromethylbenzyl)piperazine-1-carbonyl]-1H-indol-5-yloxy}pyridin-3-yl)-4-trifluoromethyl-benzamide hydrobromide] | 254 to 260 °C (dec.) |
| Br.Br.CN(C(=O)c1ccc(Cl)c(Cl)c1)c1ccc(Oc2ccc3c(c2)cc(C(=O)N2CCN(Cc4ccncc4)CC2)n3C)nc1 [Example 554, 3,4-Dichloro-N-methyl-N-{6-[1-methyl-2-(4-pyridin-4-ylmethyl-piperazine-1-carbonyl)-1H-indol-5-yloxy]pyridin-3-yl}benzamide dihydrobromide] | 204 to 208 °C (dec.) |
| Br.Cn1c(C(=O)N2CCN(Cc3ccc(C#N)cc3)CC2)cc2cc(Oc3ccc(NC(=O)c4ccc(Cl)c(Cl)c4)cn3)ccc21 [Example 556, 3,4-Dichloro-N-(6-{2-[4-(4-cyanobenzyl)piperazine-1-carbonyl]-1-methyl-1H-indol-5-yloxy}pyridin-3-yl)benzamide hydrobromide] | 267 to 272 °C (dec.) |
| CS(=O)(=O)O.CS(=O)(=O)O.Cn1c(C(=O)N2CCN(Cc3ccccn3)CC2)cc2cc(Oc3ccc(NC(=O)c4ccc(C(F)(F)F)cc4)cn3)ccc21 [Example 560, N-{6-[1-Methyl-2-(4-pyridin-2-ylmethylpiperazine-1-carbonyl)-1H-indol-5-yloxy]pyridin-3-yl}-4-trifluoromethylbenzamide bismethanesulfonate] | 137 to 139 °C |
| CN(C(=O)c1ccc(C(F)(F)F)cc1)c1ccc(Oc2ccc3c(c2)cc(C(=O)N2CCN(Cc4ccccn4)CC2)n3C)nc1.O=C(O)C(=O)O.O=C(O)C(=O)O [Example 561, N-Methyl-N-{6-[1-methyl-2-(4-pyridin-2-ylmethylpiperazine-1-carbonyl)-1H-indol-5-yloxy]pyridin-3-yl}-4-trifluoromethyl-benzamide dioxalate] | 114 to 117 °C |
| CC(C)CN1CCN(C(=O)c2cc3cc(Oc4ccc(N(C)C(=O)c5ccc(C(F)(F)F)cc5)cn4)ccc3n2C)CC1 [Example 562, N-{6-[2-(4-Isobutylpiperazine-1-carbonyl)-1-methyl-1H-indol-5-yl-oxy]pyridin-3-yl}-N-methyl-4-trifluoromethylbenzamide] | 163 to 164 °C |
| Br.Br.Cn1c(C(=O)N2CCN(Cc3cccnc3)CC2)cc2cc(Oc3ccc(NC(=O)c4ccc(Cl)c(Cl)c4)cn3)ccc21 [Example 563, 3,4-Dichloro-N-{6-[1-methyl-2-(4-pyridin-3-ylmethylpiperazine-1-carbonyl)-1H-indol-5-yloxy]pyridin-3-yl}benzamide dihydrobromide] | 249 to 252 °C (dec.) |
| Br.Br.Cn1c(C(=O)N2CCN(Cc3ccccn3)CC2)cc2cc(Oc3ccc(NC(=O)c4ccc(Cl)c(Cl)c4)cn3)ccc21 [Example 564, 3,4-Dichloro-N-{6-[1-methyl-2-(4-pyridin-2-ylmethylpiperazine-1-carbonyl)-1H-indol-5-yloxy]pyridin-3-yl}benzamide dihydrobromide] | 231 to 233 °C (dec.) |
| Br.CC(C)CN1CCN(C(=O)c2cc3cc(Oc4ccc(NC(=O)c5ccc(Cl)c(Cl)c5)cn4)ccc3n2C)CC1 [Example 567, 3,4-Dichloro-N-{6-[2-(4-isobutylpiperazine-1-carbonyl)-1-methyl-1H-indol-5-yloxy]pyridin-3-yl}benzamide hydrobromide] | 251 to 254 °C |

Source: patent publication US8551999B2, “Heterocyclic compound and pharmaceutical composition thereof” (Otsuka Pharmaceutical Co., Ltd., priority 2007, dated 2013)
